Reference: patent US10213444B2, “Composition and method for treating bipolar disorder” (LAUREATE INSTITUTE FOR BRAIN RESEARCH, priority 2014, dated 2019)

Tests used:
[1] = administered orally; cited from earlier work
[2] = system: patients with major depressive disorder; test: Same trial, subset of patients with major depressive disorder (unipolar depression); assay type: in vivo, human; settings: subset with major depressive disorder (n=10)
Description: (§1) The above pharmaceutical compound comprising minocycline and acetylsalicylic acid was tested using a double-blind, placebo-controlled trial with a 2×2design. The study examined subjects with bipolar disorder during a current major depressive episode (“bipolar depression”). Most subjects were either partial responders to existing antidepressant and/or mood stabilizing treatments or were treatment resistant. The subjects were randomized to receive either (1) placebo-minocycline plus placebo-acetylsalicylic acid, or (2) active-minocycline (100 mg b.i.d.) plus placebo-acetylsalicylic acid, or (3) placebo-minocycline plus active-acetylsalicylic acid (81 mg b.i.d.), or (4) active-minocycline (100 mg b.i.d.) plus active-acetylsalicylic acid (81 mg b.i.d.) (FIG. 1). Clinical symptoms of depression and mania were measured using the Montgomery-Asberg Depression Rating Scale (MADRS) and the Young Mania Rating Scale (YMRS), respectively.
In the subset of patients with major depressive disorder (n=10), 75% responded to the combination of minocycline+ASA (3/4) compared to 50% response in the minocycline+placebo group (1/2), and 0% in the ASA+placebo group (0/3). The data document that the combination of minocycline and ASA has effectiveness for the treatment of additional forms of non-bipolar depression such as major depressive disorder and dysthymia. […]

[3] = system: subjects with bipolar disorder during a current major depressive episode (bipolar depression); test: Double-blind, placebo-controlled 2×2 trial in bipolar depression (MADRS, YMRS); assay type: in vivo, human; settings: LOCF; for Percentage of female responders: female patients; for Percentage of female responders / Percentage of responders (BMI >30): >50% reduction in MADRS; for Percentage of responders (BMI >30): subset BMI >30; for Percentage of responders: total sample, response = greater than 50% reduction in MADRS baseline to final, 6 weeks, ASA 81 mg b.i.d., minocycline 100 mg b.i.d. p.o.
Description: as §1
For the data produced below, the treatment method for administering the combination of each composition, including the active-minocycline and active-acetylsalicylic acid, entailed the following steps: administer ASA 81 mg p.o b.i.d and minocycline 100 mg p.o b.i.d. As depicted in FIG. 1, each session number (total of 7) is encircled, with the timing between sessions indicated in weeks with a 2business day window on either side of visit target date to complete the visit. Session 1(far left) is the baseline and session 7(far right) is the study end. The study duration is 6weeks.
Of the 99patients who were randomized, 87started treatment and completed a sufficient number of sessions (at least 3weeks of treatment) to be included in the last-observation carried forward analysis (LOCF) shown below. For these 87subjects, 79completed the entire study. Eight subjects dropped-out early, all from the active treatment groups—4from minocycline+ASA, 3from ASA+placebo, and one from minocycline+placebo. Since existing anti-depressant medications generally begin to exert antidepressant effects within 3weeks, in this trial, data from patients with at least 3weeks of treatment were including in the LOCF analysis.
Response to medication/placebo was defined as a greater than 50% reduction in MADRS scores between the baseline and final assessment. Table 2provides results reflecting percentage of treatment responders by group, and relative risk reduction (RRR), absolute risk reduction (ARR) and, number needed to treat (NNT) for the combination ASA/minocycline treatment.

[4] = system: individuals receiving lithium treatment (bipolar symptoms); settings: cited from earlier work
[5] = administered orally; cited from earlier work; remark: listed apart in the source

SMILES: CC(=O)Oc1ccccc1C(=O)O [ASA, acetylsalicylic acid]
- brain to blood ratio [1]: 0.32
- level within brain as percent of level within blood plasma [1]: 32%
- percent responded (MADRS response) [2]: 0%
- Percentage of female responders [3]: 50%
- Percentage of responders (BMI >30) [3]: 44%
- Percentage of responders [3]: 56%
- effect on medication events ([4]; high-dose aspirin or other anti-inflammatory classes added to lithium treatment): increase in medication events
- less likely to have a medication event ([4]; low-dose (≤81 to 162 mg/day) aspirin added to lithium treatment): 17%

SMILES: CN(C)c1ccc(O)c2c1C[C@H]1C[C@H]3[C@H](N(C)C)C(O)=C(C(N)=O)C(=O)[C@@]3(O)C(O)=C1C2=O [minocycline]
- percent responded (MADRS response) [2]: 50%
- Percentage of female responders [3]: 55%
- Percentage of responders (BMI >30) [3]: 38%
- Percentage of responders [3]: 38%
- level within cerebrospinal fluid as percent of plasma concentrations [5]: 11-56%
